One compound from BindingDB's records for doi:10.1021/jm801065q (Novartis Institutes For Biomedical Research, 2008) can be followed below.

Test [1] can be described thus: Activity at CXCR4 in human Jurkat T cells assessed as inhibition of CXCL12-induced cell migration.
Test [2] can be described thus: Activity at CXCR4 in rat IR983F cells assessed as inhibition of CXCL12-induced cell migration.

In the case of `C1=C(CS/C(=N\C2CCCCC2)NC2CCCCC2)N2CCN=C2S1` [1,3-dicyclohexyl-2-((5,6-dihydroimidazo[2,1-b]thiazol-3-yl)methyl)isothiourea], the IC50 (usually the concentration needed to halve the response being measured) is 0.058 µM in test [1] and 0.029 µM in test [2].
